Test results reported in PubChem BioAssay (NCI).
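Where inhibition never reached the appropriate level, the endpoint shown equals the highest concentration tested. Otherwise, values were interpolated linearly from a five-concentration, 48-hour dose response in 96-well plates. TGI is the concentration that stops growth completely.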 Where a SMILES comes first, the peptide text is derived from it. Bridges are numbered along the chain shown (N, C = ends). [ ]: non-standard residue; d: D form. The star is where a group is joined. Cbz = O=C(OCc1ccccc1)*; Aib = CC(C)(N)C(=O)O; OBn = c1ccc(CO*)cc1; βAla = NCCC(=O)O

Assays:
Test in all cases: growth of human tumour cells (NCI), 48 h
BT-549 breast = system: BT-549 breast
DU-145 prostate = system: DU-145 prostate
HCT-116 colon = system: HCT-116 colon
HS 578T breast = system: HS 578T breast
M14 melanoma = system: M14 melanoma
MDA-MB-435 = system: MDA-MB-435
MOLT-4 leukemia = system: MOLT-4 leukemia
NCI-H460 lung = system: NCI-H460 lung
NCI/ADR-RES ovarian = system: NCI/ADR-RES ovarian
OVCAR-3 ovarian = system: OVCAR-3 ovarian
SN12C renal = system: SN12C renal
SNB-19 CNS = system: SNB-19 CNS
SNB-75 CNS = system: SNB-75 CNS
SW-620 colon = system: SW-620 colon
U251 CNS = system: U251 CNS
UO-31 renal = system: UO-31 renal
HOP-92 NSCLC = system: HOP-92 NSCLC
SR leukemia = system: SR leukemia

Structure (SMILES) | TGI (BT-549 breast) | TGI (DU-145 prostate) | TGI (HCT-116 colon) | TGI (HS 578T breast) | TGI (M14 melanoma) | TGI (MDA-MB-435) | TGI (MOLT-4 leukemia) | TGI (NCI-H460 lung) | TGI (NCI/ADR-RES ovarian) | TGI (OVCAR-3 ovarian) | TGI (SN12C renal) | TGI (SNB-19 CNS) | TGI (SNB-75 CNS) | TGI (SW-620 colon) | TGI (U251 CNS) | TGI (UO-31 renal) | TGI (HOP-92 NSCLC) | TGI (SR leukemia)
CSc1nc(Cl)c2c(n1)Sc1nc3cc4c(cc3n1C2O)OCO4 (configuration not stated) | > 31.3 µM | > 100 µM | > 47.4 µM | > 30.4 µM | > 43.9 µM | > 100 µM | > 100 µM | > 32 µM | 5.72 µM | 7.3 µM | 32.4 µM | > 100 µM | > 100 µM | > 81.8 µM | > 50.1 µM | > 57.8 µM | – | –
C/C(=N\NC(=S)N1CC2CCC(CC2)C1)c1ccncn1 | 3.54 µM | 6.26 µM | 1.5 µM | > 24.4 µM | 2.36 µM | 5.9 µM | – | 1.65 µM | – | – | 5.16 µM | 15 µM | 3.4 µM | 18.4 µM | 6.23 µM | 0.911 µM | 3.9 µM | –
CC1=C2C3=C(C)C(=O)C(C)(C)CC[C@@]3(C)[C@]2(C)CCC(C)(C)C1=O | > 100 µM | > 100 µM | > 100 µM | > 100 µM | > 100 µM | > 100 µM | > 100 µM | – | > 100 µM | > 100 µM | > 100 µM | > 100 µM | > 100 µM | > 100 µM | > 100 µM | > 100 µM | – | > 100 µM
NS(=O)(=O)c1nnc(NC(=O)c2ccccc2)s1 | > 100 µM | > 100 µM | > 100 µM | > 100 µM | > 100 µM | > 100 µM | > 100 µM | > 100 µM | > 100 µM | > 100 µM | > 100 µM | > 100 µM | – | > 100 µM | > 100 µM | > 100 µM | > 100 µM | > 100 µM
CC(=O)NNc1nc(C)c(C(/C=C/c2cccc([N+](=O)[O-])c2)=N/NC(=S)NN)s1 | > 100 µM | > 100 µM | > 100 µM | > 100 µM | > 100 µM | > 100 µM | > 100 µM | > 100 µM | > 100 µM | > 100 µM | > 100 µM | > 100 µM | > 100 µM | > 100 µM | > 100 µM | > 100 µM | > 100 µM | –
O=C(c1ccccc1)c1c2ccccn2c2cccc[n+]12 | > 100 µM | > 100 µM | > 100 µM | > 100 µM | > 100 µM | > 100 µM | > 100 µM | > 100 µM | > 100 µM | > 100 µM | – | – | > 100 µM | > 100 µM | > 100 µM | – | > 100 µM | > 100 µM
Cc1oc2nc(N(C)C)nc(Cl)c2c1C | > 100 µM | > 100 µM | > 100 µM | > 100 µM | > 100 µM | > 100 µM | > 100 µM | > 100 µM | > 100 µM | > 100 µM | > 100 µM | > 100 µM | > 100 µM | > 100 µM | > 100 µM | > 100 µM | > 100 µM | –
Nc1ccc(C(=O)Nn2c(-c3ccccc3)nc3ccccc3c2=O)cc1 | > 100 µM | > 100 µM | > 100 µM | > 100 µM | > 100 µM | > 100 µM | > 100 µM | > 100 µM | – | > 100 µM | > 100 µM | > 100 µM | > 100 µM | > 100 µM | > 100 µM | > 100 µM | > 100 µM | > 100 µM
CC1(C)NC(=O)C(NC(=O)C(CC(=O)OCc2ccccc2)NC(=O)OCc2ccccc2)CCCCNC(=O)CCNC1=O (configuration not stated) (Cbz-D(OBn)K[Aib][βAla]; lactam 2-C; configuration not given here) | > 100 µM | > 100 µM | > 100 µM | > 100 µM | > 100 µM | > 100 µM | > 100 µM | > 100 µM | > 100 µM | > 100 µM | > 100 µM | > 100 µM | > 100 µM | > 100 µM | > 100 µM | > 100 µM | > 100 µM | –
CNC(=O)N1CCN(C(=O)NC)CCN(C(=O)NC)CC1 | > 100 µM | > 100 µM | > 100 µM | > 100 µM | > 100 µM | – | > 100 µM | > 100 µM | > 100 µM | – | > 100 µM | > 100 µM | > 100 µM | > 100 µM | > 100 µM | > 100 µM | > 100 µM | > 100 µM
Clc1ccc2c(NCCCCN=Cc3ccccc3)ccnc2c1 | 32.6 µM | 80.8 µM | 18.4 µM | 36.6 µM | 27.4 µM | 25.2 µM | 25.7 µM | 24.2 µM | 46.7 µM | 41.9 µM | 21.5 µM | 45.7 µM | 24.1 µM | 25.2 µM | 24.5 µM | 40.3 µM | 26.3 µM | –
Cc1c(Cc2ccccc2)n(COCCCO)c(=O)[nH]c1=O | > 100 µM | > 100 µM | > 100 µM | > 100 µM | > 100 µM | > 100 µM | > 100 µM | > 100 µM | > 100 µM | > 100 µM | > 100 µM | > 100 µM | > 100 µM | > 100 µM | > 100 µM | > 100 µM | > 100 µM | –
CO/N=C(\C(=O)Nc1cncs1)c1csc(NC(c2ccccc2)(c2ccccc2)c2ccccc2)n1 | > 10 µM | > 10 µM | > 10 µM | > 10 µM | > 10 µM | – | > 10 µM | > 10 µM | > 10 µM | > 10 µM | > 10 µM | > 10 µM | > 10 µM | > 10 µM | > 10 µM | > 10 µM | > 10 µM | > 10 µM
O=C(c1ccc(Cl)cc1Cl)N(C(=O)N1CCCCC1)c1ccccc1 | > 100 µM | > 100 µM | > 100 µM | > 100 µM | > 100 µM | > 100 µM | > 100 µM | – | > 100 µM | > 100 µM | > 100 µM | > 100 µM | – | > 100 µM | > 100 µM | > 100 µM | – | –
